Data on 16 compounds can be found in patent publication US9382228B2 (priority 2013, dated 2016).

The test system of test [1] is osteoclast precursors. Nature of the test: cells. The test is classed as cell-based. Conditions: read-out: Osteoclast assay.
Test [2] has as its target unphosphorylated PDGFRβ kinase (uPDGFRβ, Seq. ID No. 3) (Homo sapiens, UniProt P09619). Nature of the test: biochemical. To be noted: uPDGFRb, enzymatic assay, ATP 500 μM.
Procedure: Unphosphorylated PDGFRβ (uPDGFRβ) Kinase (Seq. ID No. 3) Assay
In this assay, the oxidation of NADH (thus the decrease at A340 nm) was continuously monitored spectrophometrically. […] The inhibition reaction was started by mixing serial diluted test compound with the above reaction mixture. The absorption at 340 nm was monitored continuously for 4 h at 30° C. on a Polarstar Optima or Synergy 2 plate reader. The reaction rate was calculated using the 1.5 to 2.5 h time frame. Percent inhibition was obtained by comparison of reaction rate with that of a control (i.e. with no test compound). IC50 values were calculated from a series of percent inhibition values determined at a range of inhibitor concentrations using software routines as implemented in the GraphPad Prism software package.
The target in test [3] is T1, unphosphorylated c-FMS kinase (uFMS, Seq. ID no. 1) (Homo sapiens, UniProt P07333).
T1 sequence (P07333 538-972): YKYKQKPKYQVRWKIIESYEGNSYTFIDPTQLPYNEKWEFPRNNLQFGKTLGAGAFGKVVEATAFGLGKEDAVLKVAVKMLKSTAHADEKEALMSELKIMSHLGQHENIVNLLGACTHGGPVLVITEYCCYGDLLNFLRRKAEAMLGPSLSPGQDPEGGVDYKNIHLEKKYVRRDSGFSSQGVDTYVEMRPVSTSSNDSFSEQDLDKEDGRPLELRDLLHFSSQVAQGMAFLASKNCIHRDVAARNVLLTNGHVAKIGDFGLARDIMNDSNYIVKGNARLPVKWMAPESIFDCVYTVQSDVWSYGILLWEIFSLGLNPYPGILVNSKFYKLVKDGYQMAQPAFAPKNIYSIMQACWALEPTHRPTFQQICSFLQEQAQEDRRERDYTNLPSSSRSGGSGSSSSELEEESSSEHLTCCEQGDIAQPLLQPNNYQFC
Briefly: biochemical. Conditions: uFMS, enzymatic assay, ATP 500 μM.
Procedure: In this assay, the oxidation of NADH (thus the decrease at A340 nm) was continuously monitored spectrophometrically. The reaction mixture (100 μL) contained FMS (purchased from Millipore) (10 nM), polyE4Y (1 mg/mL), MgCl2 (10 mM), pyruvate kinase (4 units), lactate dehydrogenase (0.7 units), phosphoenol pyruvate (1 mM), NADH (0.28 mM) and ATP (500 μM) in 90 mM Tris buffer containing 0.2% octyl-glucoside and 1% DMSO, pH 7.5. The inhibition reaction was started by mixing serial diluted test compound with the above reaction mixture. The absorption at 340 nm was monitored continuously for 4 hours at 30° C. on Synergy 2 plate reader. The reaction rate was calculated using the 3 to 4 h time frame. Percent inhibition was obtained by comparison of reaction rate with that of a control (i.e. in the absence of test compound). IC50 values were calculated from a series of percent inhibition values determined at a range of inhibitor concentrations using software routines as implemented in the GraphPad Prism software package.

Test [4] has as its system M-NFS-60 cells. Nature of the test: cells. Conditions: 67 h, read-out: M-NFS-60 cell proliferation.
Procedure: M-NFS-6 Cell Proliferation Assay
A serial dilution of test compound was dispensed into a 384-well black clear bottom plate (Corning, Corning, N.Y.). Two thousand five hundred cells were added per well in 50 μL complete growth medium. […] IC50 values were calculated from a series of percent inhibition values determined at a range of inhibitor concentrations using software routines as implemented in the GraphPad Prism software package.
Test [5] has as its system phospho-FMS in THP-1 cells. Nature of the test: cells. Conditions: Homo sapiens, THP-1, read-out: pFMS inhibition in THP-1 cells.
Procedure: In a separate 96 well black clear bottom plate, one hundred and fifty thousand THP-1 cells were added per well in 100 μL in assay medium. Fifty microliters of diluted compound was then added to the cells. […] Lysates were prepared and used to perform the phospho-FMS ELISA as described by the manufacturer (catalog #DYC3268, R & D Systems, Minneapolis, Minn.). GraphPad Prism was used to calculate IC50 values obtained from data generated from the ELISA assay.
For test [6], the target named is unphosphorylated c-KIT kinase (uKIT, Seq. ID no. 2) (Homo sapiens, UniProt P10721). Briefly: biochemical. Conditions: uKIT, enzymatic assay, ATP 2000 μM.
Procedure: uKit kinase (Seq. ID No. 2) Assay
In this assay, the oxidation of NADH (thus the decrease at A340 nm) was continuously monitored spectrophometrically. […] The inhibition reaction was started by mixing serial diluted test compound with the above reaction mixture. The absorption at 340 nm was monitored continuously for 4 hours at 30° C. on Synergy 2 plate reader (BioTech).

Each structure is given as a SMILES string.

Sequence of unphosphorylated c-KIT kinase (uKIT, Seq. ID no. 2) (P10721 with tags, fused parts or gaps): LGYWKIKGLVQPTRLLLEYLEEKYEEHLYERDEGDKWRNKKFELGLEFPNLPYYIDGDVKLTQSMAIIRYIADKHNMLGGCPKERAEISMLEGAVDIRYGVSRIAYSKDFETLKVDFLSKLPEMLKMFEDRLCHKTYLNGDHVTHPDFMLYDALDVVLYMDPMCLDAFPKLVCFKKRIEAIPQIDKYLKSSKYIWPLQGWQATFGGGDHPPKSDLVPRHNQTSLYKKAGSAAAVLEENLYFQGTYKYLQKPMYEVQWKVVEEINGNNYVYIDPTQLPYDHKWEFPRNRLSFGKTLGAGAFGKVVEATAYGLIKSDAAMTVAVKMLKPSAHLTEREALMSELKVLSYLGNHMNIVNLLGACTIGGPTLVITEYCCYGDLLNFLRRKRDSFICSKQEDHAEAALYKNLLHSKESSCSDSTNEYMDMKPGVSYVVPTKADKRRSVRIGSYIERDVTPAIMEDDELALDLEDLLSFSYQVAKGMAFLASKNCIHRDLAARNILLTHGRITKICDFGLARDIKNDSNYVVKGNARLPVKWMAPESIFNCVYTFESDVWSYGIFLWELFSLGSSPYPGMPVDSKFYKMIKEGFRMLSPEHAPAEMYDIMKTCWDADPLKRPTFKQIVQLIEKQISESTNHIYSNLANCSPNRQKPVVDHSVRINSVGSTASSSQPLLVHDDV
Sequence of unphosphorylated PDGFRβ kinase (uPDGFRβ, Seq. ID No. 3) (P09619 557-1106): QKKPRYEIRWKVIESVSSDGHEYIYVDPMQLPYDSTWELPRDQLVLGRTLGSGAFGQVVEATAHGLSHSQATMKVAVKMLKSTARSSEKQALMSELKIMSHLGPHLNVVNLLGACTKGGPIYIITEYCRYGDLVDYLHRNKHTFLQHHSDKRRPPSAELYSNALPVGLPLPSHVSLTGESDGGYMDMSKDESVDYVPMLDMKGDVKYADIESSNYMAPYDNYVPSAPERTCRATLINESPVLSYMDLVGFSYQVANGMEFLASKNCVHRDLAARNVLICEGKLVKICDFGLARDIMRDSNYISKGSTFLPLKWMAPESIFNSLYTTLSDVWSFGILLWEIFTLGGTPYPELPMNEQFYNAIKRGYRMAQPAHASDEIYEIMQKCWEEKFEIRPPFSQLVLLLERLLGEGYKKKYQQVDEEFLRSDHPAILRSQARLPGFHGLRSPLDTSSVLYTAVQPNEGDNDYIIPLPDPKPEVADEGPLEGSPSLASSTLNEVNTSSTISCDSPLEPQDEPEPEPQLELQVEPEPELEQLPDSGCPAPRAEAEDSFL

For `COC1(C(=O)NC(=O)Nc2ccc(Oc3ccnc(-n4cnc(C)c4)c3)cn2)CCCC1` [Example 154, 1-methoxy-N-((5-((2-(4-methyl-1H-imidazol-1-yl)pyridin-4-yl)oxy)pyridin-2-yl)carbamoyl)cyclopentanecarboxamide], the IC50 in test [1] was 10 to 100 nM; in test [2] it was 100 to 1000 nM; in test [3] it was less than 10 nM; in test [4], 10 to 100 nM; in test [5], 10 to 100 nM; in test [6], more than 1000 nM.
With `Cc1ncc(-c2cc(Oc3ccc(NC(=O)NC(=O)C4(C)CCOCC4)nc3)ccn2)s1` [Example 158, 4-methyl-N-((5-((2-(2-methylthiazol-5-yl)pyridin-4-yl)oxy)pyridin-2-yl)carbamoyl)tetrahydro-2H-pyran-4-carboxamide], the IC50 in test [1] is 10 to 100 nM; in test [2] it was 100 to 1000 nM; in test [3] it was 10 to 100 nM; in test [4] it was 10 to 100 nM; in test [5], 10 to 100 nM; in test [6], more than 1000 nM.
For the compound `COC(C)(C)C(=O)NC(=O)Nc1ccc(Oc2ccnc(-c3cnc(C)o3)c2)cn1` [Example 159, 2-methoxy-2-methyl-N-((5-((2-(2-methyloxazol-5-yl)pyridin-4-yl)oxy)pyridin-2-yl)carbamoyl)propanamide], the IC50 in test [1] was 10 to 100 nM; in test [2], more than 1000 nM; in test [3] it was 10 to 100 nM; in test [4], 10 to 100 nM; in test [5], less than 10 nM; in test [6], more than 1000 nM.
With `COC(C)(C)C(=O)NC(=O)Nc1ccc(Oc2ccnc(-c3ccnc(C)c3)c2)cn1` [Example 160, 2-methoxy-2-methyl-N-((5-((2′-methyl-[2,4′-bipyridin]-4-yl)oxy)pyridin-2-yl)carbamoyl)propanamide], the IC50 in test [1] was 10 to 100 nM; in test [2] it was more than 1000 nM; in test [3] it was less than 10 nM; in test [4] it was less than 10 nM; in test [5] it was less than 10 nM; in test [6] it was more than 1000 nM.
Turning to `CCOC(C)(C)C(=O)NC(=O)Nc1ccc(Oc2ccnc(-c3ccnc(C)c3)c2)cn1` [Example 161, 2-ethoxy-2-methyl-N-((5-((2′-methyl-[2,4′-bipyridin]-4-yl)oxy)pyridin-2-yl)carbamoyl)propanamide], the IC50 was 10 to 100 nM in test [1]; more than 1000 nM in test [2]; less than 10 nM in test [3]; 10 to 100 nM in test [4]; 10 to 100 nM in test [5]; more than 1000 nM in test [6].
With `COC(C)(C)C(=O)NC(=O)Nc1cc(C)c(Oc2ccnc(-n3cnc(C)c3)c2)cn1` [Example 164, 2-methoxy-2-methyl-N-((4-methyl-5-((2-(4-methyl-1H-imidazol-1-yl)pyridin-4-yl)oxy)pyridin-2-yl)carbamoyl)propanamide], the IC50 is 10 to 100 nM in test [1]; more than 1000 nM in test [2]; less than 10 nM in test [3]; less than 10 nM in test [4]; less than 10 nM in test [5]; more than 1000 nM in test [6].
For `Cc1cc(NC(=O)NC(=O)C2(C)CCOCC2)nc(C)c1Oc1ccnc(-c2cnn(C)c2)c1` [Example 165, N-((4,6-dimethyl-5-((2-(1-methyl-1H-pyrazol-4-yl)pyridin-4-yl)oxy)pyridin-2-yl)carbamoyl)-4-methyltetrahydro-2H-pyran-4-carboxamide], the IC50 in test [1] was 10 to 100 nM; in test [2], 10 to 100 nM; in test [3], less than 10 nM; in test [4] it was 10 to 100 nM; in test [5], 10 to 100 nM; in test [6], 100 to 1000 nM.
On to `CCc1nc(NC(=O)NC(=O)C2(C)CCOCC2)ccc1Oc1ccnc(-c2cnn(C)c2)c1` [Example 167, N-((6-ethyl-5-((2-(1-methyl-1H-pyrazol-4-yl)pyridin-4-yl)oxy)pyridin-2-yl)carbamoyl)-4-methyltetrahydro-2H-pyran-4-carboxamide], for which the IC50 in test [1] was 100 to 1000 nM; in test [2], more than 1000 nM; in test [3] it was 10 to 100 nM; in test [4], 100 to 1000 nM; in test [5] it was 10 to 100 nM; in test [6] it was more than 1000 nM.
Take `CC(C)c1nc(-c2cc(Oc3ccc(NC(=O)NC(=O)C(C)(C)C)nc3)ccn2)c[nH]1` [Example 169, N-((5-((2-(2-isopropyl-1H-imidazol-4-yl)pyridin-4-yl)oxy)pyridin-2-yl)carbamoyl)pivalamide]: the IC50 in test [1] is 10 to 100 nM; in test [2] it was more than 1000 nM; in test [3], less than 10 nM; in test [4], 10 to 100 nM; in test [5], less than 10 nM; in test [6], more than 1000 nM.
As for `CCn1cc(-c2cc(Oc3ccc(NC(=O)NC(=O)C(C)(C)OC)nc3)ccn2)cn1` [Example 170, N-((5-((2-(1-ethyl-1H-pyrazol-4-yl)pyridin-4-yl)oxy)pyridin-2-yl)carbamoyl)-2-methoxy-2-methylpropanamide], the IC50 in test [1] is less than 10 nM; in test [2], more than 1000 nM; in test [3], less than 10 nM; in test [4] it was less than 10 nM; in test [5], 10 to 100 nM; in test [6], 100 to 1000 nM.
Regarding `Cc1nc(NC(=O)NC(=O)C(C)(C)C)ccc1Oc1ccnc(-c2c[nH]nn2)c1` [Example 171, N-((5-((2-(1H-1,2,3-triazol-4-yl)pyridin-4-yl)oxy)-6-methylpyridin-2-yl)carbamoyl)pivalamide], the IC50 in test [1] is 10 to 100 nM; in test [2] it was more than 1000 nM; in test [3], less than 10 nM; in test [4], 10 to 100 nM; in test [5] it was 10 to 100 nM; in test [6], more than 1000 nM.
For `C=CCn1cc(-c2cc(Oc3ccc(NC(=O)NC(=O)C(C)(C)OC)nc3)ccn2)cn1` [Example 172, N-((5-((2-(1-allyl-1H-pyrazol-4-yl)pyridin-4-yl)oxy)pyridin-2-yl)carbamoyl)-2-methoxy-2-methylpropanamide], the IC50 was less than 10 nM in test [1]; more than 1000 nM in test [2]; less than 10 nM in test [3]; 10 to 100 nM in test [4]; less than 10 nM in test [5]; 100 to 1000 nM in test [6].
`COC(C)(C)C(=O)NC(=O)Nc1ccc(Oc2ccnc(-c3cnc(C(C)C)[nH]3)c2)cn1` [Example 173, N-((5-((2-(2-isopropyl-1H-imidazol-5-yl)pyridin-4-yl)oxy)pyridin-2-yl)carbamoyl)-2-methoxy-2-methylpropanamide]: the IC50 is 10 to 100 nM in test [1]; more than 1000 nM in test [2]; 10 to 100 nM in test [3]; 10 to 100 nM in test [4]; less than 10 nM in test [5]; more than 1000 nM in test [6].
In the case of `Cn1cc(-c2cc(Oc3cnc(NC(=O)NC(=O)C(C)(C)C)nc3)ccn2)cn1` [Example 174, N-((5-((2-(1-methyl-1H-pyrazol-4-yl)pyridin-4-yl)oxy)pyrimidin-2-yl)carbamoyl)pivalamide], the IC50 in test [1] is 10 to 100 nM; in test [2], more than 1000 nM; in test [3], 10 to 100 nM; in test [4], 10 to 100 nM; in test [5], 10 to 100 nM; in test [6], 100 to 1000 nM.
As to `Cn1cc(-c2cc(Oc3ccc(NC(=O)NC(=O)C4(C)CCOCC4)nc3)ccn2)cn1` [Example 175, 4-methyl-N-((5-((2-(1-methyl-1H-pyrazol-4-yl)pyridin-4-yl)oxy)pyridin-2-yl)carbamoyl)tetrahydro-2H-pyran-4-carboxamide], the IC50 in test [1] was 10 to 100 nM; in test [2], 100 to 1000 nM; in test [3], less than 10 nM; in test [4] it was 10 to 100 nM; in test [5], 10 to 100 nM; in test [6] it was 100 to 1000 nM.
In the case of `Cn1cc(-c2cc(Oc3cnc(NC(=O)NC(=O)C(C)(C)C)cn3)ccn2)cn1` [Example 176, N-((5-((2-(1-methyl-1H-pyrazol-4-yl)pyridin-4-yl)oxy)pyrazin-2-yl)carbamoyl)pivalamide], the IC50 in test [1] is 10 to 100 nM; in test [2], more than 1000 nM; in test [3], 10 to 100 nM; in test [4] it was more than 1000 nM; in test [5] it was 10 to 100 nM; in test [6], more than 1000 nM.
